Test results reported in ChEMBL document CHEMBL1201862, “PubChem BioAssay data set” (2004).
Calls of active or inactive are those of the source.

Assays:
[1] = target: ATP-dependent molecular chaperone HSP82 (Candida albicans (strain WO-1) (Yeast), UniProt C4YTQ8); test: steroid-induced GRE reporter decrease in yeast – S. cerevisiae, luminescence, Hsp90 inhibitor project, dose response (AID 2400); type: functional, cell-based;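 note: beta-galactosidase luminescence from glucocorticoid response element reporter as proxy for Hsp90 function; inhibitor potency where signal loss means Hsp90 inhibition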
Sequence of ATP-dependent molecular chaperone HSP82 (C4YTQ8 whole entry): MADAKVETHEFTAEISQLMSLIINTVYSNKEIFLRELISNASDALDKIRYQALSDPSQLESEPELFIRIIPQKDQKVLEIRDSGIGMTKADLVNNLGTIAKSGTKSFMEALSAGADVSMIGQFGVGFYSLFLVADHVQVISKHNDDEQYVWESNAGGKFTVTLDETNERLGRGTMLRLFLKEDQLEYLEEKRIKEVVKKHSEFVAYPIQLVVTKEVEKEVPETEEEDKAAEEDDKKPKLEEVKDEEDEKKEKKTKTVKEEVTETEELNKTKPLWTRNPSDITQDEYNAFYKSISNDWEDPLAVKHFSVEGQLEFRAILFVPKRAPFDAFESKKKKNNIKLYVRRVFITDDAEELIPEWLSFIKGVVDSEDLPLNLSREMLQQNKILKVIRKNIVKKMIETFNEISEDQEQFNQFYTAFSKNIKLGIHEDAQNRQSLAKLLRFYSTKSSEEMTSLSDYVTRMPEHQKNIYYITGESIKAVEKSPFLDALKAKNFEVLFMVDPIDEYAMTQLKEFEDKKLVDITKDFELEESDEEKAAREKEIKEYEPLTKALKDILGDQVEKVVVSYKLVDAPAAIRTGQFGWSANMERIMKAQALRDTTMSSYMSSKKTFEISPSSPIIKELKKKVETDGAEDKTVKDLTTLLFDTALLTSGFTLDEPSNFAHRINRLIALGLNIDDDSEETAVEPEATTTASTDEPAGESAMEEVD

[2] = target: Multidrug resistance protein CDR2 (Candida albicans (strain SC5314 / ATCC MYA-2876) (Yeast), UniProt P78595); test: inhibition of Nile Red efflux via Candida CDR2 – S. cerevisiae AD1-8u, singleplex, Cherry Pick1 hits, dose response (AID 588604); type: functional
Sequence of Multidrug resistance protein CDR2 (P78595 whole entry): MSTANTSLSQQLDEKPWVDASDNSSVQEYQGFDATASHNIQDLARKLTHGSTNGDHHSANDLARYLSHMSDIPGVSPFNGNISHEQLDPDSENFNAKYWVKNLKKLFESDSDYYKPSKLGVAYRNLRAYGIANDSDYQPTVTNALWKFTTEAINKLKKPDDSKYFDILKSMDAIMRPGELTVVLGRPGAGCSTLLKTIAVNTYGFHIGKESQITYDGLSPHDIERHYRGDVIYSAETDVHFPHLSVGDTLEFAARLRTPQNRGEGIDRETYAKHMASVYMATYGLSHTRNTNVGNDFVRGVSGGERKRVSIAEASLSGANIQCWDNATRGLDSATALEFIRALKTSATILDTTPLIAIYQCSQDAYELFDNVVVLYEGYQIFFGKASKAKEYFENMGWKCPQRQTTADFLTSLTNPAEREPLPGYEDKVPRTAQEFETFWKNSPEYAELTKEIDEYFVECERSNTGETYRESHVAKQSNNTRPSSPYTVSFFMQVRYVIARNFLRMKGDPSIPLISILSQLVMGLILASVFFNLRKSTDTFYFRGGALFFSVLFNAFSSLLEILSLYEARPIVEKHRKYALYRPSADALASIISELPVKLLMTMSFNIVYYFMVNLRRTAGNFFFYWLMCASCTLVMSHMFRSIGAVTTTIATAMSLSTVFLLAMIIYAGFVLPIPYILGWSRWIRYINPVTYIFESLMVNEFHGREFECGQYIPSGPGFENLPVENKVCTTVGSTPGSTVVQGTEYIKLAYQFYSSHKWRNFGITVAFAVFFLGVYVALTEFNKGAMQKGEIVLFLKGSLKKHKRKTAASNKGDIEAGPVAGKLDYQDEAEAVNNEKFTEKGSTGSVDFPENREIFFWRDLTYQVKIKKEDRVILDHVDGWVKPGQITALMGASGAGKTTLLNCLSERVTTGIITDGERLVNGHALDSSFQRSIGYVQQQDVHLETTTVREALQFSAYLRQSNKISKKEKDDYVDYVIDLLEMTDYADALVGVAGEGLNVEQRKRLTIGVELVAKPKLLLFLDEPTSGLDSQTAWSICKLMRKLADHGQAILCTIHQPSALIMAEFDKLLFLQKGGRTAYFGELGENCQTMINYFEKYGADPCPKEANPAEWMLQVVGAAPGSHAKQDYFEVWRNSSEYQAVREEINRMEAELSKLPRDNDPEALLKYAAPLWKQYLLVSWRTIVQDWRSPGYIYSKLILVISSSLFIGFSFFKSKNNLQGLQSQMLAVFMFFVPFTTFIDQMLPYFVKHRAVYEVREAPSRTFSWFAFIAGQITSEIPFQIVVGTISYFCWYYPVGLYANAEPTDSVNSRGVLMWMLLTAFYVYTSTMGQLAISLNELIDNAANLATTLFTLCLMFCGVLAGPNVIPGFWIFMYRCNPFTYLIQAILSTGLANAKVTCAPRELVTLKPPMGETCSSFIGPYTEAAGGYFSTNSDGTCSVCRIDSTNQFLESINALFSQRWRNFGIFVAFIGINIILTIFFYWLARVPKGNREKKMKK

[3] = target: T1, Streptokinase A (Streptococcus pyogenes serotype M1, UniProt P10520); test: viability-normalized secreted streptokinase activity reduction – plasminogen activation absorbance, OD405, dose response (AID 1914); type: functional, Streptococcus pyogenes M1 GAS;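 note: secreted streptokinase activity via plasminogen activation per viability signal from cell pellet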
T1 sequence (P10520 whole entry): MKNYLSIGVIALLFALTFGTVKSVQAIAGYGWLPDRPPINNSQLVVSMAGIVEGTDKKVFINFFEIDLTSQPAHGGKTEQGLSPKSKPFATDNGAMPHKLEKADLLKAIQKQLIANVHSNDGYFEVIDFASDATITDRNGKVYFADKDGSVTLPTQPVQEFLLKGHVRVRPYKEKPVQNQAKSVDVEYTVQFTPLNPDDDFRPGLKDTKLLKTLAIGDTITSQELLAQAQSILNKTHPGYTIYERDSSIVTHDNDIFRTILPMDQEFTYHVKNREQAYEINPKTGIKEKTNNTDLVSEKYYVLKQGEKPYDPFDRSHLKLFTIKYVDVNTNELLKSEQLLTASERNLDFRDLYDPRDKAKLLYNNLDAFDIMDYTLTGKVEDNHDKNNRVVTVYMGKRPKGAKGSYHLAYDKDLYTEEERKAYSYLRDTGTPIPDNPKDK

[4] = target: T2, Replicative DNA helicase DnaB (Mycobacterium tuberculosis, UniProt P9WMR3); test: DnaB intein splicing inhibitors, dose response, biochemical, cell-free fluorescence (AID 449749); type: functional
T2 sequence (P9WMR3 whole entry): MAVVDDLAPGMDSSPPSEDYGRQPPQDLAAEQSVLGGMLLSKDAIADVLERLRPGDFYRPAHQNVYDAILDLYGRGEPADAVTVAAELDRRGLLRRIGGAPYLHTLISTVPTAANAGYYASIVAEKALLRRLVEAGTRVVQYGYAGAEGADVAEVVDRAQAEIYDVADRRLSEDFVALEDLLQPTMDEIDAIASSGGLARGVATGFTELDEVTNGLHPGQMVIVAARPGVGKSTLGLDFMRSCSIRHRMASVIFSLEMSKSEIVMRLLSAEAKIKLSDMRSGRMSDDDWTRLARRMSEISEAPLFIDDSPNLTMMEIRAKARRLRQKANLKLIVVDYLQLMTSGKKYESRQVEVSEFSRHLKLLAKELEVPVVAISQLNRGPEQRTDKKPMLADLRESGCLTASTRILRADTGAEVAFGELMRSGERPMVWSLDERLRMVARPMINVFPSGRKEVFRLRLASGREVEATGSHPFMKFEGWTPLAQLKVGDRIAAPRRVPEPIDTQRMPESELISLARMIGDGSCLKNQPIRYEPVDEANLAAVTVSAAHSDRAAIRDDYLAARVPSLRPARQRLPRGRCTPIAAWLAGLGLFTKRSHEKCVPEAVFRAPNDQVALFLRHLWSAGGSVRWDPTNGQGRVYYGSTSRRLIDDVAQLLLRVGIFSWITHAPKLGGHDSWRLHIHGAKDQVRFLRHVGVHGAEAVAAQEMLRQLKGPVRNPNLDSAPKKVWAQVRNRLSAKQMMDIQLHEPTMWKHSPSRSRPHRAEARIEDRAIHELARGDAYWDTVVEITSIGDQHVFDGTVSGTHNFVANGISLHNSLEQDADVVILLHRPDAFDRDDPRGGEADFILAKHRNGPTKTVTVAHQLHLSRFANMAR

[5] = target: Sphingosine 1-phosphate receptor 4 (Homo sapiens, UniProt O95977); test: Fluorescence dose response cell-based high throughput screening assay for antagonists of the Sphingosine 1-Phosphate Receptor 4 (S1P4). [Related pubchem assays: 1524 (Confirmation in triplicates.), 1510 (Primary screen.)]; type: functional
Sequence of Sphingosine 1-phosphate receptor 4 (O95977 whole entry): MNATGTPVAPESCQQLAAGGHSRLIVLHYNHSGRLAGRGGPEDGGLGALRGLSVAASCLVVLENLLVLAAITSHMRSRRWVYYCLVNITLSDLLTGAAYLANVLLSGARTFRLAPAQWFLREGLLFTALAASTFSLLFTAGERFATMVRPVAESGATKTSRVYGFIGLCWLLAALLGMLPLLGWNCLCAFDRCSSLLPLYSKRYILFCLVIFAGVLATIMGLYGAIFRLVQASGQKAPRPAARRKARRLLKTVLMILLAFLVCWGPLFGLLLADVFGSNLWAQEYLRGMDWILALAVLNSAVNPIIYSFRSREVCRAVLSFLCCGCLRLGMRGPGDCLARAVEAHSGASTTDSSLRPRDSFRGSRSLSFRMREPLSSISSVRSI

[6] = target: T3, Caspase-6 (Homo sapiens, UniProt P55212); test: inhibition of CASP6 peptide cleavage – biochemical, VEID-R110 fluorescence, cherry-pick, dose response (AID 720632)
T3 sequence (P55212 whole entry): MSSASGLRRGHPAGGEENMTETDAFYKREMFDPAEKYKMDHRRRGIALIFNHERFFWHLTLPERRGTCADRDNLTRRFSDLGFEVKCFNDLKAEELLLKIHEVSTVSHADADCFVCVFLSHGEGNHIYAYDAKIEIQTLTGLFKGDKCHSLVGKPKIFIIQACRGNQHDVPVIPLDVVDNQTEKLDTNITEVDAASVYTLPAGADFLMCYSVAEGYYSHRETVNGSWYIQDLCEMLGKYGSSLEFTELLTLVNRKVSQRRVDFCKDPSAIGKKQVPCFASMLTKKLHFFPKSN

[7] = target: Insulin receptor (Homo sapiens, UniProt P06213); type: functional;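 note: insulin receptor kinase tested as one member of a kinome-wide kinase panel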
[8] = target: Focal adhesion kinase 1 (Homo sapiens, UniProt Q05397); type: functional;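 note: measured as one member of a kinome panel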
[9] = target: Tyrosine-protein kinase Fyn (Homo sapiens, UniProt P06241); type: functional
[10] = target: Serine/threonine-protein kinase pim-2 (Homo sapiens, UniProt Q9P1W9); type: functional;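 note: value comes from a broad kinase panel profiling study in which PIM2 was one of the panel members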
[11] = target: Proto-oncogene tyrosine-protein kinase Src (Homo sapiens, UniProt P12931); type: functional;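 note: SRC entry within a kinome-wide kinase profiling panel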
[12] = target: Serine/threonine-protein kinase PAK 4 (Homo sapiens, UniProt O96013); type: functional;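 note: value obtained within a kinome profiling panel in which PAK4 was one of the panel members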
[13] = target: Tyrosine-protein kinase receptor UFO (Homo sapiens, UniProt P30530); type: functional
[14] = target: Dual specificity mitogen-activated protein kinase kinase 2 (Homo sapiens, UniProt P36507); test: Navigating the Kinome. Panel member name: MAP2K2; type: functional
Sequence of Dual specificity mitogen-activated protein kinase kinase 2 (P36507 whole entry): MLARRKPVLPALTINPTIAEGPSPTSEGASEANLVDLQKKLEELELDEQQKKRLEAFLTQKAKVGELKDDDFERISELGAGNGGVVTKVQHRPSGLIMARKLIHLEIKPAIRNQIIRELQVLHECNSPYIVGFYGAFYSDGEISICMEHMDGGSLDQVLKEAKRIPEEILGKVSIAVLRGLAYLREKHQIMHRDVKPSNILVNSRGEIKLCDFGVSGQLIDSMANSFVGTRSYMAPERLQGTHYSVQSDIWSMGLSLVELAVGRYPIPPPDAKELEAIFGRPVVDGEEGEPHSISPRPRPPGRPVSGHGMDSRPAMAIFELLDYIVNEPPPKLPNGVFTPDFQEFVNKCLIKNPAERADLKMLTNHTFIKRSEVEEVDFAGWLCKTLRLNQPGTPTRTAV

[15] = target: Non-receptor tyrosine-protein kinase TYK2 (Homo sapiens, UniProt P29597); type: functional
Sequence of Non-receptor tyrosine-protein kinase TYK2 (P29597 whole entry): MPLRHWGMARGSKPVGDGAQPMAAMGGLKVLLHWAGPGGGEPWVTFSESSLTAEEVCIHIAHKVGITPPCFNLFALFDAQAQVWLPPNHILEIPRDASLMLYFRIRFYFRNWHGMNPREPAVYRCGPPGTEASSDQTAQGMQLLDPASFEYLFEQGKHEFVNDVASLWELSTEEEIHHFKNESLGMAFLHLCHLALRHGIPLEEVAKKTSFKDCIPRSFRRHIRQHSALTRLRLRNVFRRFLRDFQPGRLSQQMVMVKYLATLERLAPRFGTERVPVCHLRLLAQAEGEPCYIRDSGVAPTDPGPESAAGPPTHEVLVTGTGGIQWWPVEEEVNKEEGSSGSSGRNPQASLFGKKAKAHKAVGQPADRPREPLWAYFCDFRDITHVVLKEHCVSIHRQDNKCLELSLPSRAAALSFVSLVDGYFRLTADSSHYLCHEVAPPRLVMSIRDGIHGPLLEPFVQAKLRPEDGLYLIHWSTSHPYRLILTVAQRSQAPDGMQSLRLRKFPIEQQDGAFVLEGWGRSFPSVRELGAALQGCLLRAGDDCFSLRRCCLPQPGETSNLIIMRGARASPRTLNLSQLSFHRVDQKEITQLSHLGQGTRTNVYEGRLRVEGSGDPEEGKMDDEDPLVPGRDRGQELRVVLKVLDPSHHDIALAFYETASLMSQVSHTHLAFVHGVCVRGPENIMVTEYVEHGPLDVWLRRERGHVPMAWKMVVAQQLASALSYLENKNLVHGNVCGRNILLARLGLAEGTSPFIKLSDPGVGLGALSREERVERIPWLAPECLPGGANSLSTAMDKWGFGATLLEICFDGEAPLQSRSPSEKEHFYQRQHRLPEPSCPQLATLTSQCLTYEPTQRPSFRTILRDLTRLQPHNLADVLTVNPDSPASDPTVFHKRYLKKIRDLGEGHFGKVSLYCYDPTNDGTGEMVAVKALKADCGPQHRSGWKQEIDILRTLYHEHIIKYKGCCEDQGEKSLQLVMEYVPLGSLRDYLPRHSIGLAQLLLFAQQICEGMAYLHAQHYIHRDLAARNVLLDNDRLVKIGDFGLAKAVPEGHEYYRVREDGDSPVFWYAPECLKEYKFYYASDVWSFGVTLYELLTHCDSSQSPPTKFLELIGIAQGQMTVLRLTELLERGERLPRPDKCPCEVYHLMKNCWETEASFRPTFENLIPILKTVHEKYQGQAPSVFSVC

[16] = target: Fibroblast growth factor receptor 3 (Homo sapiens, UniProt P22607); type: functional
[17] = target: MAP kinase-activated protein kinase 5 (Homo sapiens, UniProt Q8IW41); type: functional;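 note: measured as one member of a kinome panel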
[18] = target: Mitogen-activated protein kinase 1 (Homo sapiens, UniProt P28482); type: functional
[19] = target: Phosphorylase b kinase gamma catalytic chain, liver/testis isoform (Homo sapiens, UniProt P15735); type: functional;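 note: PHKG2 measured as one member of a kinome-wide kinase panel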
[20] = target: Albumin (Bos taurus, UniProt P02769); test: Counterscreen for inhibitors of T-cell receptor (TCR)-CD3 interaction: Fluorescence-based biochemical high throughput dose response assay to identify inhibitors of T-cell receptor (TCR)-CD3 interaction using a TAMRA-labeled BSA probe.; type: functional
Sequence of Albumin (P02769 whole entry): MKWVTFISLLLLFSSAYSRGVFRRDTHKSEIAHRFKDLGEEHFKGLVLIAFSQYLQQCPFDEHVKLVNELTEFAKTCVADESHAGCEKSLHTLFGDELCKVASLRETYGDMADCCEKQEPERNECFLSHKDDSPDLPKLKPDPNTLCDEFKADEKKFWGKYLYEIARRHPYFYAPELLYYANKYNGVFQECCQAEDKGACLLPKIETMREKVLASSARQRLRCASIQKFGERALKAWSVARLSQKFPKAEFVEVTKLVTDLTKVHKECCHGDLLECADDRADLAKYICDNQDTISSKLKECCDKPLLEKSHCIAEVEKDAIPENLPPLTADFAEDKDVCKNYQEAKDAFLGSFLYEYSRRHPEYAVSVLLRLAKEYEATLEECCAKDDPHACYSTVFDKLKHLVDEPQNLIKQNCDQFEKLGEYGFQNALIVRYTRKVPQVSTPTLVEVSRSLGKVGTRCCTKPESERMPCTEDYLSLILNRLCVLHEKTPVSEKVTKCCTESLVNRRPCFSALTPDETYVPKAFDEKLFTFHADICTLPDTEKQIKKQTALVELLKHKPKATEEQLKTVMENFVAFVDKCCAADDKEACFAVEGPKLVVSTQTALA

## CN(C)S(=O)(=O)Oc1cccc(C(=O)Nc2ccc(Cl)c(Cl)c2)c1
[1]
  EC50: 18200 nM (active)

## Cc1ccc2[nH]c(/C(C#N)=C/c3ccc(O)c(O)c3)nc2c1
[2]
  EC50: 2170 nM (active)

## COC(=O)C1CN(C#N)N(c2ccc(Cl)cc2)C12c1ccccc1-c1ccccc12 (stereo not given)
[3]
  EC50: 744 nM (active)
[4]
  AC50: 3160 nM (active)
[5]
  IC50: 313 nM (active)

## O=C(NN1C(=O)CSC1=S)C(=O)NN1C(=O)CSC1=S
[6]
  AC50: 276 nM (active)

## Nc1noc2cccc(-c3cccc(O)c3)c12
[7]
  Ki: > 5010 nM (inactive)
[8]
  Ki: > 39800 nM (inactive)
[9]
  Ki: > 7940 nM (inactive)
[10]
  Ki: > 1580 nM (inactive)
[11]
  Ki: 1260 nM (active)
[12]
  Ki: > 5010 nM (inactive)
[13]
  Ki: > 2000 nM (inactive)
[14]
  Ki: 7940 nM (active)
[15]
  Ki: > 2000 nM (inactive)
[16]
  Ki: > 2000 nM (inactive)
[17]
  Ki: > 1580 nM (inactive)
[18]
  Ki: > 7940 nM (inactive)
[19]
  Ki: > 5010 nM (inactive)

## O=C1NC(=S)S/C1=C\C=C\c1ccc([N+](=O)[O-])o1
[20]
  IC50: > 94100 nM (inactive)
